Reference: ChEMBL document CHEMBL4706552, “Discovery of 4-methyl-N-(4-((4-methylpiperazin- 1-yl)methyl)-3-(trifluoromethyl)phenyl)-3-((6-(pyridin-3-yl)-1H-pyrazolo[3,4-d]pyrimidin-4-yl)-oxy)benzamide as a potent inhibitor of RET and its gatekeeper mutant” (Eur J Med Chem, 2020)

Tests used:
Format in all cases: cell-based
[1] = molecular target: T1, Kinesin-1 heavy chain/ Tyrosine-protein kinase receptor RET (Homo sapiens) (UniProt P07949+P33176); experiment: Inhibition of KIF5B-RET fusion protein (unknown origin) expressed in mouse BaF3 cells assessed as reduction in cell proliferation measured after 48 hrs by MTS assay
[2] = molecular target: T2, Coiled-coil domain-containing protein 6/Tyrosine-protein kinase receptor RET (Homo sapiens) (UniProt P07949+Q16204); experiment: Inhibition of CCDC6-RET fusion protein (unknown origin) expressed in mouse BaF3 cells assessed as reduction in cell proliferation measured after 48 hrs by MTS assay
[3] = Cytotoxicity against mouse BaF3 cells assessed as reduction in cell proliferation measured after 48 hrs by MTS assay
[4] = system: BaF3; experiment: Inhibition of CCDC6-RET V804M mutant fusion protein (unknown origin) expressed in mouse BaF3 cells assessed as reduction in cell proliferation measured after 48 hrs by MTS assay; conditions: Homo sapiens
[5] = system: Kinesin-1 heavy chain/ Tyrosine-protein kinase receptor RET (Homo sapiens), P07949+P33176 [V804M]; experiment: Inhibition of KIF5B-RET V804M mutant fusion protein (unknown origin) expressed in mouse BaF3 cells assessed as reduction in cell proliferation measured after 48 hrs by MTS assay
[6] = molecular target: T1, Kinesin-1 heavy chain/ Tyrosine-protein kinase receptor RET (Homo sapiens); experiment: Inhibition of KIF5B-RET fusion protein (unknown origin) expressed in mouse BaF3 cells assessed as cell survival at 2 uM measured after 48 hrs by MTS assay relative to control
[7] = molecular target: T2, Coiled-coil domain-containing protein 6/Tyrosine-protein kinase receptor RET (Homo sapiens); experiment: Inhibition of CCDC6-RET fusion protein (unknown origin) expressed in mouse BaF3 cells assessed as cell survival at 2 uM measured after 48 hrs by MTS assay relative to control

T2 sequence (P07949 29-1114 limits assumed): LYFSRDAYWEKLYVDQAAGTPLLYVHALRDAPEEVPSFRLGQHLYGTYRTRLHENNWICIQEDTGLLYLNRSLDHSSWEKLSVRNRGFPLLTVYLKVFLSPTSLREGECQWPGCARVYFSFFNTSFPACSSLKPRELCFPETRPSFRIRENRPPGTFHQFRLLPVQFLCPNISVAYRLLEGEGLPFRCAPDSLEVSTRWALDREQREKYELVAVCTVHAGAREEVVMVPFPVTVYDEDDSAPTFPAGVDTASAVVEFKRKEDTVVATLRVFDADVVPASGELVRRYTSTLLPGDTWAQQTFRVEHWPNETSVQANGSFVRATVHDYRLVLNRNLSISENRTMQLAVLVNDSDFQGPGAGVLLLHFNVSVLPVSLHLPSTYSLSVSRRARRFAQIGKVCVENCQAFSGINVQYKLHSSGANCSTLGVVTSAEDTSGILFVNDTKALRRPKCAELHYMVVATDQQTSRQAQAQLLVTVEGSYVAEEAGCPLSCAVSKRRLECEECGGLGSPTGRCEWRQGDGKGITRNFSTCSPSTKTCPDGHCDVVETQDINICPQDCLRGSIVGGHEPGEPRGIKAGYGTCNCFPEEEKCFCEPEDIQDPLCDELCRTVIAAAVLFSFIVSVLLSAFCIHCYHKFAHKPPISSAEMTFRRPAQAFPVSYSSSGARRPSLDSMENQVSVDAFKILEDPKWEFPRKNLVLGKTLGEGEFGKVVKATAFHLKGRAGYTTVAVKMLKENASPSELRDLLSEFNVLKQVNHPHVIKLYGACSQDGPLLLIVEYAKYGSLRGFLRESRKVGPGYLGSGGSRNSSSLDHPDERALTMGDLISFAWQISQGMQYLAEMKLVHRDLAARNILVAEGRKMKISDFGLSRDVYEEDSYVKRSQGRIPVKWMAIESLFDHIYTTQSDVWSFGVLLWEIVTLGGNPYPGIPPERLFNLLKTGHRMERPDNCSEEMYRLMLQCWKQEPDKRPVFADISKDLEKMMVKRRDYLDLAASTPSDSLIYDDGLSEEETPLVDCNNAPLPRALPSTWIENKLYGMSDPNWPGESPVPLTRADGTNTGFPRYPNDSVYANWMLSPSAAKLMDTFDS
T2 sequence (Q16204 2-474 partner limits assumed): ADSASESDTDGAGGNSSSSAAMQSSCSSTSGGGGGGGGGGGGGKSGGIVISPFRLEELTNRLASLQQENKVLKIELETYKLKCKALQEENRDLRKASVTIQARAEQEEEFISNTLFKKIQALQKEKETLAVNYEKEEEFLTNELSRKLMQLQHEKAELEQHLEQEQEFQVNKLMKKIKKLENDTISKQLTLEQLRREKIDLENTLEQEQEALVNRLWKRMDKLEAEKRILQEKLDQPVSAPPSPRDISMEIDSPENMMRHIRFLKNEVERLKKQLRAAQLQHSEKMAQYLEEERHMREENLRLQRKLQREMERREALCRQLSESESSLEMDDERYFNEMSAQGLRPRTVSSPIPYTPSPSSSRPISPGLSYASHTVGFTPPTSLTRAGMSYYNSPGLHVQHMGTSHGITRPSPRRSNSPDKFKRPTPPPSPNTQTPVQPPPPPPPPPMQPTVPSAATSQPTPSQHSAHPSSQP
T1 sequence (P07949 29-1114 limits assumed): as the sequence (P07949 29-1114 limits assumed) above
T1 sequence (P33176 2-963 partner limits assumed): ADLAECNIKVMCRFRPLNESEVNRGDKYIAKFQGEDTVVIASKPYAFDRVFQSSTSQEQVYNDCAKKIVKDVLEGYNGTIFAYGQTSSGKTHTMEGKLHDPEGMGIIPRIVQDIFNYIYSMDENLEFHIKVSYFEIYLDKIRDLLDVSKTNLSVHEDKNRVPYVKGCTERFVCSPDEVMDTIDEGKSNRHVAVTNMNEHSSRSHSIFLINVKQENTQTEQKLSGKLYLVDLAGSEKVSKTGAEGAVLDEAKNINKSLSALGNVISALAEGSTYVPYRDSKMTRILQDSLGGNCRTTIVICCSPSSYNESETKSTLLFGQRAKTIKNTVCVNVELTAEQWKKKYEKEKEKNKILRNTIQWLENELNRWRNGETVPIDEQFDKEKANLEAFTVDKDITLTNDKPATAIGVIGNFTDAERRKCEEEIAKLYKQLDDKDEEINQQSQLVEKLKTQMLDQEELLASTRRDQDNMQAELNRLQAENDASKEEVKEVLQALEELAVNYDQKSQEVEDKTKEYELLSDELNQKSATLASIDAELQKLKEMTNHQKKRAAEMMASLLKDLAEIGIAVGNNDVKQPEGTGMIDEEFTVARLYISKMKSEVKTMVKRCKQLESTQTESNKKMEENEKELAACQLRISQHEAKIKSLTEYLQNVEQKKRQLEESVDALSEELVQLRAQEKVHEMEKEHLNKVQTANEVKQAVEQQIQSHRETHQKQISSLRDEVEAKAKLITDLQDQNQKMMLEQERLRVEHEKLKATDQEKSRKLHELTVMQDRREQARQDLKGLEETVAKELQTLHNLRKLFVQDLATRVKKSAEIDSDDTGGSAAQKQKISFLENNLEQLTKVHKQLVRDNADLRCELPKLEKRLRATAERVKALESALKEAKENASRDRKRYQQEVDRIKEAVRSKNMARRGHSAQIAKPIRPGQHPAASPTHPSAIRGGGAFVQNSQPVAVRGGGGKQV

| SMILES | GI50 [1] [nM] | GI50 [2] [nM] | GI50 [4] [nM] | GI50 [5] [nM] | GI50 at 48 h [3] [nM] | Survival [6] [%] | Survival [7] [%] |
| --- | --- | --- | --- | --- | --- | --- | --- |
| Cc1ccc(Oc2nc(-c3cccnc3)nc3[nH]ncc23)cc1NC(=O)c1ccc(CN2CCN(C)CC2)c(C(F)(F)F)c1 | 3890 | 2370 |  |  |  |  |  |
| Cc1ccc(C(=O)Nc2ccc(CN3CCN(C)CC3)c(C(F)(F)F)c2)cc1Oc1nc(-c2ccc(O)cc2)nc2c1cnn2C | 57 | 166 |  |  |  |  |  |
| Cc1ccc(Oc2nc(-c3cccnc3)nc3c2cnn3C)cc1C(=O)Nc1ccc(CN2CCN(C)CC2)c(C(F)(F)F)c1 |  |  |  |  |  | 87.5 | 100 |
| Cc1ccc(C(=O)Nc2ccc(CN3CCN(C)CC3)c(C(F)(F)F)c2)cc1Oc1nc(-c2cccc(O)c2)nc2c1cnn2C | 28 | 178 | 499 | 274 | 2640 |  |  |
| Cc1ccc(C(=O)Nc2ccc(CN3CCN(C)CC3)c(C(F)(F)F)c2)cc1Oc1nc(-c2ccncc2)nc2[nH]ncc12 | 240 | 73 |  |  |  |  |  |
| Cc1ccc(C(=O)Nc2cccc(C(F)(F)F)c2)cc1Oc1nc(-c2cccnc2)nc2c1cnn2C | 2240 | 1970 |  |  |  |  |  |
| CN1CCN(Cc2ccc(C(=O)Nc3cc(Oc4nc(-c5cccnc5)nc5c4cnn5C)ccc3Cl)cc2C(F)(F)F)CC1 | 1390 | 2070 |  |  |  |  |  |
| Cc1ccc(C(=O)Nc2cc(CN3CCN(C)CC3)cc(C(F)(F)F)c2)cc1Oc1nc(-c2cccnc2)nc2c1cnn2C | 482 | 264 |  |  |  |  |  |
| Cc1ccc(C(=O)Nc2ccc(CN3CCN(C)CC3)c(C(F)(F)F)c2)cc1Oc1nc(-c2ccc(Cl)cc2)nc2c1cnn2C | 114 | 696 |  |  |  |  |  |
| CN1CCN(Cc2ccc(C(=O)Nc3cc(Oc4nc(-c5ccncc5)nc5c4cnn5C)ccc3Cl)cc2C(F)(F)F)CC1 | 114 | 16 | > 10000 | 8190 | 3400 |  |  |
| CN1CCN(Cc2ccc(C(=O)Nc3cccc(Oc4nc(-c5ccncc5)nc5c4cnn5C)c3)cc2C(F)(F)F)CC1 | 106 | 140 |  |  |  |  |  |
| CN1CCN(Cc2ccc(C(=O)Nc3cccc(Oc4nc(-c5cccnc5)nc5[nH]ncc45)c3)cc2C(F)(F)F)CC1 | 820 | 342 |  |  |  |  |  |
| Cc1cn(-c2cc(NC(=O)c3ccc(C)c(Oc4nc(-c5cccnc5)nc5c4cnn5C)c3)cc(C(F)(F)F)c2)cn1 | > 10000 | > 10000 |  |  |  |  |  |
| CN1CCN(Cc2ccc(C(=O)Nc3cccc(Oc4nc(-c5ccncc5)nc5[nH]ncc45)c3)cc2C(F)(F)F)CC1 | 299 | 79 |  |  |  |  |  |
| CN1CCN(Cc2ccc(C(=O)Nc3cc(Oc4nc(-c5cccnc5)nc5[nH]ncc45)ccc3Cl)cc2C(F)(F)F)CC1 | 1350 | 567 |  |  |  |  |  |
| Cc1ccc(C(=O)Nc2ccc(CN3CCN(C)CC3)c(C(F)(F)F)c2)cc1Oc1nc(-c2ccncc2)nc2c1cnn2C(C)C | 915 | 1100 |  |  |  |  |  |
| Cc1ccc(C(=O)Nc2ccc(CN3CCN(C)CC3)c(C(F)(F)F)c2)cc1Oc1nc(-c2cccnc2)nc2c1cnn2C | 35 | 39 | 136 | 113 | 1290 |  |  |
| Cc1ccc(C(=O)Nc2ccc(CN3CCN(C)CC3)c(C(F)(F)F)c2)cc1Oc1nc(Nc2ccccc2)nc2c1cnn2C | 70 | 123 |  |  |  |  |  |
| CN1CCN(Cc2ccc(NC(=O)c3cccc(Oc4nc(-c5cccnc5)nc5c4cnn5C)c3)cc2C(F)(F)F)CC1 |  |  |  |  |  | 56.5 | 65.5 |
| Cc1cn(-c2cc(NC(=O)c3ccc(C)c(Oc4nc(-c5ccncc5)nc5c4cnn5C)c3)cc(C(F)(F)F)c2)cn1 | 2620 | 1570 |  |  |  |  |  |
| Cc1ccc(C(=O)Nc2ccc(CN3CCN(C)CC3)c(C(F)(F)F)c2)cc1Oc1nc(-c2ccsc2)nc2c1cnn2C | 36 | 449 | 736 | 564 | 5070 |  |  |
| Cc1ccc(C(=O)Nc2ccc(CN3CCN(C)CC3)c(C(F)(F)F)c2)cc1Oc1nc(-c2ccoc2)nc2c1cnn2C | 14 | 75 | 529 | 290 | > 10000 |  |  |
| CN1CCN(Cc2ccc(NC(=O)c3cc(Oc4nc(-c5ccncc5)nc5c4cnn5C)ccc3Cl)cc2C(F)(F)F)CC1 | 130 | 108 |  |  |  |  |  |
| Cc1ccc(C(=O)Nc2ccc(CN3CCN(C)CC3)c(C(F)(F)F)c2)cc1Oc1nc(-c2cccc(Cl)c2)nc2c1cnn2C | 320 | 807 |  |  |  |  |  |
| Cc1ccc(Oc2nc(-c3ccncc3)nc3c2cnn3C)cc1C(=O)Nc1ccc(CN2CCN(C)CC2)c(C(F)(F)F)c1 | 440 | 1520 |  |  |  |  |  |
| Cc1ccc(NC(=O)c2ccc(CN3CCN(C)CC3)c(C(F)(F)F)c2)cc1Oc1nc(-c2cccnc2)nc2c1cnn2C | 411 | 477 |  |  |  |  |  |
| CN1CCN(Cc2ccc(NC(=O)c3cccc(Oc4nc(-c5ccncc5)nc5c4cnn5C)c3)cc2C(F)(F)F)CC1 |  |  |  |  |  | 74.9 | 94.1 |

Further lines, with some results ahead:

| GI50 [1] [nM] | GI50 [2] [nM] | GI50 [4] [nM] | GI50 [5] [nM] | SMILES | GI50 at 48 h [3] [nM] | Survival [6] [%] | Survival [7] [%] |
| --- | --- | --- | --- | --- | --- | --- | --- |
| 953 | 1110 |  |  | CN1CCN(Cc2ccc(C(=O)Nc3cccc(Oc4nc(-c5cccnc5)nc5c4cnn5C)c3)cc2C(F)(F)F)CC1 |  |  |  |
| < 4 | < 4 | < 4 | < 4 | CO[C@]1(C(=O)N[C@@H](C)c2ccc(-n3cc(F)cn3)nc2)CC[C@H](c2nc(C)cc(Nc3cc(C)[nH]n3)n2)CC1 [PRALSETINIB] | 1270 |  |  |
| 152 | 847 |  |  | Cc1ccc(-c2nc(Oc3cc(C(=O)Nc4ccc(CN5CCN(C)CC5)c(C(F)(F)F)c4)ccc3C)c3cnn(C)c3n2)cc1 |  |  |  |
| 6 | 13 | 4870 | 4210 | Cc1ccc(Oc2nc(-c3ccncc3)nc3c2cnn3C)cc1NC(=O)c1ccc(CN2CCN(C)CC2)c(C(F)(F)F)c1 | 2780 |  |  |
| > 10000 | > 10000 |  |  | CCn1ncc2c(Oc3cc(C(=O)Nc4ccc(CN5CCN(C)CC5)c(C(F)(F)F)c4)ccc3C)nc(-c3ccncc3)nc21 |  |  |  |
| 4 | 4 | 1890 | 757 | Cc1ccc(Oc2nc(-c3ccncc3)nc3[nH]ncc23)cc1NC(=O)c1ccc(CN2CCN(C)CC2)c(C(F)(F)F)c1 | 3450 |  |  |
| 4020 | 4170 |  |  | CN1CCN(Cc2ccc(NC(=O)c3cc(Oc4nc(-c5cccnc5)nc5c4cnn5C)ccc3Cl)cc2C(F)(F)F)CC1 |  |  |  |
| 469 | 617 |  |  | Cc1ccc(NC(=O)c2ccc(CN3CCN(C)CC3)c(C(F)(F)F)c2)cc1Oc1nc(-c2ccncc2)nc2c1cnn2C |  |  |  |
| 22 | 13 | 7380 | 6520 | CN1CCN(Cc2ccc(C(=O)Nc3cc(Oc4nc(-c5ccncc5)nc5[nH]ncc45)ccc3Cl)cc2C(F)(F)F)CC1 | 1010 |  |  |
| 98 | 348 |  |  | Cc1ccc(C(=O)Nc2ccc(CN3CCN(C)CC3)c(C(F)(F)F)c2)cc1Oc1nc(-c2ccccc2)nc2c1cnn2C |  |  |  |
| 4420 | 4170 |  |  | Cc1ccc(Oc2nc(-c3cccnc3)nc3c2cnn3C)cc1NC(=O)c1ccc(CN2CCN(C)CC2)c(C(F)(F)F)c1 |  |  |  |
|  | 29 | 1000 | 1210 | COc1cc2nccc(Oc3ccc(NC(=O)C4(C(=O)Nc5ccc(F)cc5)CC4)cc3)c2cc1OC [CABOZANTINIB] | 7910 |  |  |
| 36 | 39 | 220 | 90 | Cc1ccc(C(=O)Nc2ccc(CN3CCN(C)CC3)c(C(F)(F)F)c2)cc1Oc1nc(-c2ccncc2)nc2c1cnn2C | 2620 |  |  |
